In patent publication US20150315188A1, “COMPOUNDS AND METHODS FOR TREATMENT OF HYPERTENSION” (MEDIVATION TECHNOLOGIES, INC., priority 2012, published 2015):

How the values were obtained:
[1] = target: T1, Human adrenergic α2A receptor (Homo sapiens, UniProt P08913); assay: β-Arrestin GPCR functional assay, adrenergic α2A (Protocol B); assay type: cell-based; conditions: for IC50: β-arrestin, antagonist vs nor-epinephrine EC80
T1 sequence (P08913 1-465): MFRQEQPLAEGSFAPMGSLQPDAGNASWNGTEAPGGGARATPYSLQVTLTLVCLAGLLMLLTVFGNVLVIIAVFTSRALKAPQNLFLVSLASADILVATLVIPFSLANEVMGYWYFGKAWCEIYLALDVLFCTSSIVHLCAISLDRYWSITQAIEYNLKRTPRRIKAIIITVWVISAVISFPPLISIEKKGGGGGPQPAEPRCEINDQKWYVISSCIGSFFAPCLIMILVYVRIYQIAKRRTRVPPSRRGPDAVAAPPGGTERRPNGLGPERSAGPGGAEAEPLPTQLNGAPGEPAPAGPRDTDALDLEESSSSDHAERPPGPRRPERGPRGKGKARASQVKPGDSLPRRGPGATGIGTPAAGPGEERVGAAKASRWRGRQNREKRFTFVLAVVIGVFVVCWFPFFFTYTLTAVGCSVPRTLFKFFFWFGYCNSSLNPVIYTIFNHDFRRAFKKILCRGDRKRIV
Method: To evaluate the activity of compounds in β-Arrestin GPCR functional assays, recombinant CHO cell line (DiscoveRX), over expressed with human adrenergic α2A receptor were used. The experiment was done with kit of DiscoveRX as per recommended protocol of the supplier. Cells were harvested from culture flask using cell dissociation solution (CDS) and plated at a density of 12,000 cells/well in CP reagent (supplied with the kit) in a half area 96-well white polystyrene plate. After 24 h incubation at 37° C., compounds at various concentrations in 1% (final) DMSO were charged to the cells for 30 min at 37° C. Active nor-epinephrine (-NE) at its EC80 concentrations (270 nM) were then added to the cells and incubated for another 90 min at 37° C. Detection mix was prepared by mixing of Path Hunter cell assay buffer, Emerald II solution and Galactone star solution in a ratio of 19:5:1 and incubated with the cells for 60 min at RT in the dark. The reading was taken in Envision at luminescence mode. Biochemical assay results are presented as the percent Inhibition in Table B2a, or IC50 values in Table B2b.

[2] = target: T1, Human adrenergic α2A receptor; assay: Radioligand binding, adrenergic α2A (Protocol Group B); design: purchased Milipore (Millipore); conditions: for inhibition at 0.1 µM / Percentage inhibition of ligand binding, Adrenergic α2A (0.1 μM): 0.1 μM compound; for inhibition at 0.1 µM / inhibition at 0.3 µM / Ki / Percentage inhibition of ligand binding, Adrenergic α2A (0.1 μM) / Percentage inhibition of ligand binding, Adrenergic α2A (0.3 μM): Protocol Group B; for inhibition at 0.1 µM: read-out: Percentage inhibition of ligand binding, Adrenergic α2A (0.1 μM); for inhibition at 0.3 µM / Percentage inhibition of ligand binding, Adrenergic α2A (0.3 μM): 0.3 μM compound; for inhibition at 0.3 µM: read-out: Percentage inhibition of ligand binding, Adrenergic α2A (0.3 μM); for Ki: estimated Ki; for Percentage inhibition of ligand binding, Adrenergic α2A, 3.2 nM: 3.2 nM compound, 0.0032 µM; for Percentage inhibition of ligand binding, Adrenergic α2A, 10 nM: 10 nM compound, 0.01 µM; for Percentage inhibition of ligand binding, Adrenergic α2A, 0.032 μM: 0.032 μM compound; for Percentage inhibition of ligand binding, Adrenergic α2A, 0.32 μM: 0.32 μM compound
In short: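 Membranes from recombinant cells expressing the receptor, in 50 mM Tris-HCl pH 7.4 with 5 mM MgCl2, 1 mM CaCl2, 0.2% BSA; compounds incubated with 2 nM [^3H]MK-912 for 60 min at 25° C. Nonspecific binding defined by 10 μM rauwolscine; filtration, counting; percent inhibition of specific binding, or estimated Ki.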

[3] = target: T2, Human adrenergic α2B receptor (Homo sapiens, UniProt P18089); assay: β-Arrestin GPCR functional assay, adrenergic α2B (Protocol B); assay type: cell-based; conditions: for IC50: β-arrestin, antagonist vs nor-epinephrine EC80, read-out: IC50 Adrenergic α2B
T2 sequence (P18089 1-450): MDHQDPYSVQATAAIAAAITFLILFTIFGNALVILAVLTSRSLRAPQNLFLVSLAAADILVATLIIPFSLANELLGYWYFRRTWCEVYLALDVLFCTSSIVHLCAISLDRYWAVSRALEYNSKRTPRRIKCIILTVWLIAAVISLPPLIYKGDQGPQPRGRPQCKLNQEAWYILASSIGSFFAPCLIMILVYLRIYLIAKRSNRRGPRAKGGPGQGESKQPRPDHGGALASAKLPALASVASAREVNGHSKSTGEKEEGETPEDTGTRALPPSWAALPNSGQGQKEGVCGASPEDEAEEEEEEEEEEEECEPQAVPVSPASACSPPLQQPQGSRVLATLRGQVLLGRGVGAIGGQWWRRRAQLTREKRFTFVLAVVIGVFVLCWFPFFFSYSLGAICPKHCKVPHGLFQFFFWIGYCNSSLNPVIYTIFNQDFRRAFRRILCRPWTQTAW
In short: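 CHO cells overexpressing human α2B (PathHunter β-arrestin), 12,000 per well, 24 h at 37° C; compounds in 1% DMSO 30 min, then 50 nM norepinephrine (EC80) 90 min at 37° C.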

[4] = target: T2, Human adrenergic α2B receptor; assay: Radioligand binding, adrenergic α2B (Protocol Group B); design: purchased Milipore (Millipore); conditions: for inhibition at 0.01 µM / Percentage inhibition of ligand binding, Adrenergic α2B (10 nM): 10 nM compound; for inhibition at 0.01 µM: read-out: Percentage inhibition of ligand binding, Adrenergic α2B (10 nM); for inhibition at 0.03 µM: read-out: Percentage inhibition of ligand binding, Adrenergic α2B (30 nM); for inhibition at 0.1 µM: read-out: Percentage inhibition of ligand binding, Adrenergic α2B (0.1 μM); for Ki: estimated Ki, read-out: Ki α2B; for Percentage inhibition of ligand binding, Adrenergic α2B, 0.1 nM: 0.1 nM compound, 0.0001 µM; for Percentage inhibition of ligand binding, Adrenergic α2B, 0.32 nM: 0.32 nM compound, 0.00032 µM; for Percentage inhibition of ligand binding, Adrenergic α2B, 1 nM: 1 nM compound, 0.001 µM; for Percentage inhibition of ligand binding, Adrenergic α2B, 3.2 nM: 3.2 nM compound, 0.0032 µM; for Percentage inhibition of ligand binding, Adrenergic α2B (10 nM): 0.01 µM
In short: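 Recombinant human α2B receptor membranes incubated with compounds in 50 mM Tris-HCl pH 7.4, 5 mM MgCl2, 1 mM CaCl2, 0.2% BSA, 1% DMSO vehicle. Non-specific binding defined with 10 μM rauwolscine. Values are percent inhibition of specific binding or estimated Ki.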

[5] = 30 nM compound, Protocol Group B
[6] = 0.1 μM compound, Protocol Group B
[7] = 0.1 μM compound, nor-epinephrine at EC80 (270 nM)
[8] = 0.3 μM compound, nor-epinephrine at EC80 (270 nM)
[9] = 10 nM compound, nor-epinephrine at EC80 (50 nM)
[10] = 30 nM compound, nor-epinephrine at EC80 (50 nM)
[11] = 0.1 μM compound, nor-epinephrine at EC80 (50 nM)

Compound	IC50 [1]	inhibition at 0.1 µM [2]	inhibition at 0.3 µM [2]	Ki [2]	IC50 [3]	inhibition at 0.01 µM ([4]; Protocol Group B)	inhibition at 0.03 µM [4, 5]	inhibition at 0.1 µM [4, 6]	Ki ([4]; Protocol Group B)	Percentage inhibition, Adrenergic α2B [3, 9]	Percentage inhibition, Adrenergic α2B [3, 10]	Percentage inhibition of ligand binding, Adrenergic α2A (0.1 μM) [2]	other results
Cc1cc(F)c2c(c1)c1c(n2CC(C)(O)c2ccncc2)CCN2CCCC12 (single isomer, unassigned) [81a]	1250 nM	71%	90%	19.6 nM	16 nM	96%	99%	99%	0.91 nM	–	–	–	–
Cc1ccc2c(c1)c1c(n2CC(OCC2CCC2)c2ccncc2)CCN(C)C1 (single isomer, unassigned) [59a]	1570 nM	84%	91%	10 nM	67 nM	93%	98%	100%	1 nM	–	–	–	–
Cc1ccc2c(c1)c1c(n2CC(C)(O)c2ccncc2)CCN2CCCC12 (single isomer, unassigned) [13b]	806 nM	–	–	13 nM	12 nM	–	–	–	1.22 nM	4%	30%	–	Percentage inhibition, Adrenergic α2A [1, 7]: 23%; Percentage inhibition, Adrenergic α2A [1, 8]: 30%; Percentage inhibition, Adrenergic α2B [3, 11]: 102%
Cc1cc(C)c2c(c1)c1c(n2CC(C)(O)c2ccncc2)CCN2CCCC12 (single isomer, unassigned) [19a]	1260 nM	–	87%	16.2 nM	18 nM	94%	99%	100%	1 nM	33%	71%	72%	inhibition at 0.1 µM ([1]; 0.1 μM compound, nor-epinephrine at EC80 (270 nM), read-out: Percentage inhibition, Adrenergic α2A): 13%; inhibition at 0.3 µM ([1]; 0.3 μM compound, nor-epinephrine at EC80 (270 nM), read-out: Percentage inhibition, Adrenergic α2A): 23%; inhibition at 0.001 µM ([2]; 1 nM compound, concentration series, read-out: Percentage inhibition of ligand binding, Adrenergic α2A, 1 nM): 3%; Percentage inhibition of ligand binding, Adrenergic α2A, 3.2 nM ([2]; concentration series): 0%; Percentage inhibition of ligand binding, Adrenergic α2A, 10 nM ([2]; concentration series): 22%; Percentage inhibition of ligand binding, Adrenergic α2A, 0.032 μM ([2]; concentration series): 49%; Percentage inhibition of ligand binding, Adrenergic α2A, 0.32 μM ([2]; concentration series): 92%; inhibition at 1 µM ([2]; 1 μM compound, concentration series, read-out: Percentage inhibition of ligand binding, Adrenergic α2A, 1 μM): 98%; inhibition at 3.2 µM ([2]; 3.2 μM compound, concentration series, read-out: Percentage inhibition of ligand binding, Adrenergic α2A, 3.2 μM): 100%; inhibition at 0.1 µM ([3]; 0.1 μM compound, nor-epinephrine at EC80 (50 nM), read-out: Percentage inhibition, Adrenergic α2B): 101%; inhibition at 32 pM ([4]; 0.032 nM compound, concentration series, read-out: Percentage inhibition of ligand binding, Adrenergic α2B, 0.032 nM): 3%; Percentage inhibition of ligand binding, Adrenergic α2B, 0.1 nM ([4]; concentration series): 8%; Percentage inhibition of ligand binding, Adrenergic α2B, 0.32 nM ([4]; concentration series): 9%; Percentage inhibition of ligand binding, Adrenergic α2B, 1 nM ([4]; concentration series): 18%; Percentage inhibition of ligand binding, Adrenergic α2B, 3.2 nM ([4]; concentration series): 64%; inhibition at 0.032 µM ([4]; 0.032 μM compound, concentration series, read-out: Percentage inhibition of ligand binding, Adrenergic α2B, 0.032 μM): 99%
Cc1cc(C)c2c(c1)c1c(n2CC(C)(O)c2cccnc2)CCN2CCCC12 (single isomer, unassigned) [44a]	5180 nM	–	–	114 nM	178 nM	–	87%	95%	2.2 nM	–	–	47%	Percentage inhibition of ligand binding, Adrenergic α2A (0.3 μM) [2]: 70%; Percentage inhibition of ligand binding, Adrenergic α2B (10 nM) ([4]; Protocol Group B): 71%
Cc1ccc2c(c1)c1c(n2CC(C)(O)c2ccnc(F)c2)CCN2CCCC12 (single isomer, unassigned) [48a]	1110 nM	73%	82%	31.1 nM	20 nM	93%	94%	94%	1.25 nM	–	–	–	–
Cc1cc(F)c2c(c1)c1c(n2CC(C)(O)c2cccnc2)CCN2CCCC12 (single isomer, unassigned) [79b]	2670 nM	55%	74%	47.6 nM	34 nM	86%	95%	97%	1.55 nM	–	–	–	–
CC(O)(Cn1c2c(c3cc(Cl)cc(F)c31)C1CCCN1CC2)c1ccncc1 (single isomer, unassigned) [52a]	1020 nM	80%	89%	13 nM	16 nM	99%	100%	101%	0.84 nM	–	–	–	–
Cc1cc(C)c2c(c1)c1c(n2CC(C)(O)c2ccncc2)CCN2CCCC12 (single isomer, unassigned) [19b]	5010 nM	–	–	36 nM	52 nM	–	–	–	2.4 nM	15%	34%	51%	Percentage inhibition, Adrenergic α2A [1, 7]: 24%; Percentage inhibition, Adrenergic α2A [1, 8]: 20%; Percentage inhibition of ligand binding, Adrenergic α2A, 3.2 nM ([2]; concentration series): 12%; Percentage inhibition of ligand binding, Adrenergic α2A, 10 nM ([2]; concentration series): 4%; Percentage inhibition of ligand binding, Adrenergic α2A, 0.032 μM ([2]; concentration series): 27%; Percentage inhibition of ligand binding, Adrenergic α2A (0.3 μM) [2]: 77%; Percentage inhibition of ligand binding, Adrenergic α2A, 0.32 μM ([2]; concentration series): 67%; Percentage inhibition of ligand binding, Adrenergic α2A, 1 μM ([2]; 1 μM compound, concentration series, 1 µM): 84%; Percentage inhibition of ligand binding, Adrenergic α2A, 3.2 μM ([2]; 3.2 μM compound, concentration series, 3.2 µM): 95%; inhibition at 10 µM ([2]; 10 μM compound, concentration series, read-out: Percentage inhibition of ligand binding, Adrenergic α2A, 10 μM): 100%; Percentage inhibition, Adrenergic α2B [3, 11]: 86%; Percentage inhibition of ligand binding, Adrenergic α2B, 0.032 nM ([4]; 0.032 nM compound, concentration series, 32 pM): 6%; Percentage inhibition of ligand binding, Adrenergic α2B, 0.1 nM ([4]; concentration series): 0%; Percentage inhibition of ligand binding, Adrenergic α2B, 0.32 nM ([4]; concentration series): 2%; Percentage inhibition of ligand binding, Adrenergic α2B, 1 nM ([4]; concentration series): 4%; Percentage inhibition of ligand binding, Adrenergic α2B, 3.2 nM ([4]; concentration series): 31%; Percentage inhibition of ligand binding, Adrenergic α2B (10 nM) ([4]; Protocol Group B): 91%; Percentage inhibition of ligand binding, Adrenergic α2B (30 nM) ([4]; 30 nM compound, Protocol Group B, 0.03 µM): 97%; Percentage inhibition of ligand binding, Adrenergic α2B, 0.032 μM ([4]; 0.032 μM compound, concentration series, 0.032 µM): 95%; Percentage inhibition of ligand binding, Adrenergic α2B (0.1 μM) ([4]; 0.1 μM compound, Protocol Group B, 0.1 µM): 99%
